Legend:
[1] = system: galK (site 1) and xylA (site 2); assay: multiplexed gene editing with theophylline-regulated GU19-agRNA and 3MX-regulated A9-agRNA on one plasmid; format: cell-based, E. coli; conditions: 3-hour induction with 1 mM of a single ligand
Protocol: A plasmid was designed that expressed a theophylline-regulated GU19-agRNA targeting galK1 and a 3-methylxanthine (3MX)-regulated A9-agRNA targeting the xylA gene. […] The plasmid construct was then used for a 3-hour induction with either 1 mM theophylline, 1 mM 3MX or a combination of the two and the transformed bacteria were plated on MacConkey agar that contained either galactose, xylose or both to assay editing of the galK and xylA genes with the red/white screen (FIG. 3D, FIG. 11).
For the purpose of first adding theophylline and later 3MX to independently induce two different agRNAs, the protocol was slightly modified. First, the bacteria were prepared and transformed as in the original protocol, 1 mM theophylline was added to the media and the culture was shaken at 30° C. for three hours. Then, the culture was heat-shocked again at 42° C. for 15 minutes to induce expression of the lambda-red proteins again and 1 mM 3MX was added to the media. The culture was shaken at 37° C. for three hours and then plated.

[2] = molecular target: isolated aptamer (theophylline aptamer); conditions: theophylline binding; cited from earlier work
galK 1 site = assay: red/white colony screen of editing efficiency at the galK 1 site (CREATE recombineering); format: cell-based, E. coli MG1655; conditions: galK1 site; agRNAs A9 and GU19 (FIG. 2A)

## Cn1c(=O)c2[nH]cnc2n(C)c1=O [theophylline]
[1]
  editing of galK and xylA upon induction (in words): induced editing of the galK gene but not the xylA gene
[2]
  Kd: 400 nM
galK 1 site
  dependence of editing efficiency on theophylline concentration and induction time: increased with the concentration of theophylline and induction time

— patent US12416008B2, “Compositions and methods of use for small-molecule regulation of CRISPR-Cas9 activity using RNA aptamers” (priority 2019, dated 2025)
